What was measured:
Assay in all cases: Carna kinome panel
Type in all cases: biochemical
EPHA6 = EPHA6 (Homo sapiens (Human), UniProt Q9UF33); conditions: read-out: % Inhibition at 10 μM of the test compound
Method: (§1) Briefly, a selection of compounds was screened against a panel of kinases at a single concentration of 10 μM. […] This was completed using one of two assays, depending on the kinase being examined: 1) IMAP Assay. A solution of 4× inhibitor, 4× substrate/ATP/metal solution and 2× kinase solution was prepared with assay buffer (20 mM HEPES, 0.01% Tween-20, 2 mM DTT, pH 7.4) and mixed, then incubated in 384-well black plates for 1 hour at room temperature. The IMAP binding reagent (IMAP Screening Express kit; Molecular Devices) was added to each well and incubated for 30 minutes. […] 2) Off-Chip Mobility Shift Assay (MSA). A solution of 4× inhibitor, 4× substrate/ATP/metal solution and 2× kinase solution was prepared with assay buffer (20 mM HEPES, 0.01% Triton X-100, 2 mM DTT, pH 7.5) and mixed, then incubated in 384-well plates for 1 or 5 hours depending on the kinase, at room temperature. Termination buffer (QuickScout Screening assist MSA; Carna Biosciences) was added to each well. The entire reaction mixture was then applied to a LabChip3000 system (Caliper Life Science), and the product and substrate peptide peaks were separated and quantified. […] The entire reaction mixture was then applied to a LabChip3000 system (Caliper Life Science), and the product and substrate peptide peaks were separated and quantified.

MLK3_Cascade = MLK3_Cascade (Homo sapiens (Human), UniProt Q16584); conditions: read-out: % Inhibition at 10 μM of the test compound
CaMK4 = CaMK4 (Homo sapiens (Human), UniProt Q16566); conditions: read-out: % Inhibition at 10 μM of the test compound
MST1 = MST1 (Homo sapiens (Human), UniProt Q13043); conditions: read-out: % Inhibition at 10 μM of the test compound
QIK = QIK (Homo sapiens (Human), UniProt Q9H0K1); conditions: read-out: % Inhibition at 10 μM of the test compound
LYNb = LYNb (Homo sapiens (Human), UniProt P07948); conditions: read-out: % Inhibition at 10 μM of the test compound
MAP2K5_Cascade = MAP2K5_Cascade (Homo sapiens (Human), UniProt Q13163); conditions: read-out: % Inhibition at 10 μM of the test compound
Sequence of MAP2K5_Cascade (Q13163 whole entry): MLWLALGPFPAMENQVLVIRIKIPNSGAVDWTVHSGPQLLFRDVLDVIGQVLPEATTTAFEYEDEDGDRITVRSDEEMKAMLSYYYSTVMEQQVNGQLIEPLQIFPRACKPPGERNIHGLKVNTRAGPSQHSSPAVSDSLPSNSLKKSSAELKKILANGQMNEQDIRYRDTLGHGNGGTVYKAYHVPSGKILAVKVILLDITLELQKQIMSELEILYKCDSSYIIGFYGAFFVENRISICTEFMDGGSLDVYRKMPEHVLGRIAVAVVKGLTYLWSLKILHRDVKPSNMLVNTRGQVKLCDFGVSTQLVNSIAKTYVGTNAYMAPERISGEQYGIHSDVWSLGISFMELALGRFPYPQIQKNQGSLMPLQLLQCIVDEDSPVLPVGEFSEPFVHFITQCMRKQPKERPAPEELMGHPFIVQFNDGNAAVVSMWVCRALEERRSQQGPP

p70S6Kβ = p70S6Kβ (Homo sapiens (Human), UniProt Q9UBS0); conditions: read-out: % Inhibition at 10 μM of the test compound
FLT1 = FLT1 (Homo sapiens (Human), UniProt P17948); conditions: read-out: % Inhibition at 10 μM of the test compound
p38β = p38β (Homo sapiens (Human), UniProt Q15759); conditions: read-out: % Inhibition at 10 μM of the test compound
Sequence of p38β (Q15759 whole entry, looked up): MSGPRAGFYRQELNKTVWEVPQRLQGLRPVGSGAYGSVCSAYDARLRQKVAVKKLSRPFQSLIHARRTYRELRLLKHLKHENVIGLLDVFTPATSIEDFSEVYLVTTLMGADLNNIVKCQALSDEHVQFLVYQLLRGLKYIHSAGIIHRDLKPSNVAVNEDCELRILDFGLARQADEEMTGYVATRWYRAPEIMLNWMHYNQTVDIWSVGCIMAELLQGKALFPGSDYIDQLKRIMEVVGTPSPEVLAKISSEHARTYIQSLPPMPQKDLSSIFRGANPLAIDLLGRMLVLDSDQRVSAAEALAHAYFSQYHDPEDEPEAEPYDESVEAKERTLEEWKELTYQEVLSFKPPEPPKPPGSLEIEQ

PDGFRα(V561D) = PDGFRα(V561D) (Homo sapiens (Human), UniProt P16234, V561D); conditions: read-out: % Inhibition at 10 μM of the test compound
IRAK4 = IRAK4 (Homo sapiens (Human), UniProt Q9NWZ3); conditions: read-out: % Inhibition at 10 μM of the test compound
MAP2K1_Cascade = system: MAP2K1_Cascade
Method: as §1

TYK2 = TYK2 (Homo sapiens (Human), UniProt P29597); conditions: read-out: % Inhibition at 10 μM of the test compound
LCK = LCK (Homo sapiens (Human), UniProt P06239); conditions: read-out: % Inhibition at 10 μM of the test compound
EEF2K = EEF2K (Homo sapiens (Human), UniProt O00418); conditions: read-out: % Inhibition at 10 μM of the test compound
IKKε = IKKε (Homo sapiens (Human), UniProt Q14164); conditions: read-out: % Inhibition at 10 μM of the test compound
AurC = AurC (Homo sapiens (Human), UniProt Q9UQB9); conditions: read-out: % Inhibition at 10 μM of the test compound
Sequence of AurC (Q9UQB9 whole entry): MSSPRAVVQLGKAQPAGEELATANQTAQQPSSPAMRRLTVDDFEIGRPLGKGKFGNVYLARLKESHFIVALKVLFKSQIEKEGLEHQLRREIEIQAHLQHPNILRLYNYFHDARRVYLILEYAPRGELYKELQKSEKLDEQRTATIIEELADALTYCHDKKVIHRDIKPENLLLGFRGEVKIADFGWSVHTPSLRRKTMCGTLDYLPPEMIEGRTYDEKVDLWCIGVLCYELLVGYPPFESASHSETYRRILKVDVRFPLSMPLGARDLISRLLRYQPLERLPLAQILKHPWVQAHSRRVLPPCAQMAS

ROCK1 = ROCK1 (Homo sapiens (Human), UniProt Q13464); conditions: read-out: % Inhibition at 10 μM of the test compound
Sequence of ROCK1 (Q13464 whole entry): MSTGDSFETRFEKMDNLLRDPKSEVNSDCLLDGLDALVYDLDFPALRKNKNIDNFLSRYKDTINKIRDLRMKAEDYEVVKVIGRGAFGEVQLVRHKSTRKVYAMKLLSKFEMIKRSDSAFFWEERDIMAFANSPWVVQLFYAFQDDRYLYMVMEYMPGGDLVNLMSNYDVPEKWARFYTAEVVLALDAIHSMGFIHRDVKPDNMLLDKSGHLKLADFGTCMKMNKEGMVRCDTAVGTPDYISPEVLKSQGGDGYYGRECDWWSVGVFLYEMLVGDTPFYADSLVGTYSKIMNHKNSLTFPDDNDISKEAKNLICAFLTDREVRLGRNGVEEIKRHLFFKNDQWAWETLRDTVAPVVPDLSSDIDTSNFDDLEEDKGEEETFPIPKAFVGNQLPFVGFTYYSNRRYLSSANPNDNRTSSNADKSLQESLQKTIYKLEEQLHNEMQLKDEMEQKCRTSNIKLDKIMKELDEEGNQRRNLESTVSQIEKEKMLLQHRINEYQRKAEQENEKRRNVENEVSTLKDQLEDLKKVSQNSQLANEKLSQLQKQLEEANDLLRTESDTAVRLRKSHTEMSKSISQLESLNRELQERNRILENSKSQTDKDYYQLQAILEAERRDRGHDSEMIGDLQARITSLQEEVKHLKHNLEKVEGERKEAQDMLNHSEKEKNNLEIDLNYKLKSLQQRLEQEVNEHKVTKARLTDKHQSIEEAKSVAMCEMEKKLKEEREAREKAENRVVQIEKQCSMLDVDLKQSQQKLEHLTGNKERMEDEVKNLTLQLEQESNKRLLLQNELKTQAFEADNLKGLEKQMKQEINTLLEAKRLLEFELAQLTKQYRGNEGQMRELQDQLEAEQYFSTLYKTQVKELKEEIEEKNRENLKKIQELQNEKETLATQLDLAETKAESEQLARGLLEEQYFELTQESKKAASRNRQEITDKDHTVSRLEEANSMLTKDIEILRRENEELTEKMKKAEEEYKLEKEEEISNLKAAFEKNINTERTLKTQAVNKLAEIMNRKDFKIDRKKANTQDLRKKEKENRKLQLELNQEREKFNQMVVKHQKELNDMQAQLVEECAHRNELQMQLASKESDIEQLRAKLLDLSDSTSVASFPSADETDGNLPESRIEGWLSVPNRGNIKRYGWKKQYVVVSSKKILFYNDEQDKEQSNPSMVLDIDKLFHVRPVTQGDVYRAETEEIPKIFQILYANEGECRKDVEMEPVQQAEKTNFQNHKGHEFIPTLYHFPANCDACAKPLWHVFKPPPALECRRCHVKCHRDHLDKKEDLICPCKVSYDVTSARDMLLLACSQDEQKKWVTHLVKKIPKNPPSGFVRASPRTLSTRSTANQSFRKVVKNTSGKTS

RAF1_Cascade = system: RAF1_Cascade
Method: as §1

BRSK2 = BRSK2 (Homo sapiens (Human), UniProt Q8IWQ3); conditions: read-out: % Inhibition at 10 μM of the test compound
JAK3 = JAK3 (Homo sapiens (Human), UniProt P52333); conditions: read-out: % Inhibition at 10 μM of the test compound
p70S6K = p70S6K (Homo sapiens (Human), UniProt P23443); conditions: read-out: % Inhibition at 10 μM of the test compound
MAP2K4_Cascade = MAP2K4_Cascade (Homo sapiens (Human), UniProt P45985); conditions: read-out: % Inhibition at 10 μM of the test compound
CDK4/CycD3 = CDK4/CycD3 (Homo sapiens (Human), UniProt P11802); conditions: read-out: % Inhibition at 10 μM of the test compound
RSK2 = RSK2 (Homo sapiens (Human), UniProt P51812); conditions: read-out: % Inhibition at 10 μM of the test compound
FGFR3 = FGFR3 (Homo sapiens (Human), UniProt P22607); conditions: read-out: % Inhibition at 10 μM of the test compound
Sequence of FGFR3 (P22607 23-806, species assumed): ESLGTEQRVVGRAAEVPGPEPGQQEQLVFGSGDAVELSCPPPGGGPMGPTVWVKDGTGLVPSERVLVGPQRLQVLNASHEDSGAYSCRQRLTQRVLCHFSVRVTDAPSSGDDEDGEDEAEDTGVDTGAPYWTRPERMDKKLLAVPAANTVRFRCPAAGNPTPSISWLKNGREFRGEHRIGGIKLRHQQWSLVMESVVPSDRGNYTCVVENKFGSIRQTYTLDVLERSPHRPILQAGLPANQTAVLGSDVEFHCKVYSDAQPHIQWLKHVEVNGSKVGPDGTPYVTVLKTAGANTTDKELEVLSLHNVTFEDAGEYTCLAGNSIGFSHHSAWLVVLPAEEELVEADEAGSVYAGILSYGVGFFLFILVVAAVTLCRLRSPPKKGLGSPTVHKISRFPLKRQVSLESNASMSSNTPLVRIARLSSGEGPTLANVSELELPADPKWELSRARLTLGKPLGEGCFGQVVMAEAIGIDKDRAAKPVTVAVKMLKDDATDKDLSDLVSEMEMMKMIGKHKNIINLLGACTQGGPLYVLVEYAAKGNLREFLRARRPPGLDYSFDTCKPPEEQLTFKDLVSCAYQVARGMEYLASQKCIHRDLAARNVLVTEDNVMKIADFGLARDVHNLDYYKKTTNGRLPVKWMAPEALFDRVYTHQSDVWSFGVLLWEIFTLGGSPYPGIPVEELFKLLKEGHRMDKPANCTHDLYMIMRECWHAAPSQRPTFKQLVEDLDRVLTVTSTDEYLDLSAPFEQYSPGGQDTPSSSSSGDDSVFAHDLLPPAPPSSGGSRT

AurA/TPX2 = AurA/TPX2 (Homo sapiens (Human), UniProt O14965); conditions: read-out: % Inhibition at 10 μM of the test compound
BRAF_Cascade = BRAF_Cascade (Homo sapiens (Human), UniProt P15056); conditions: read-out: % Inhibition at 10 μM of the test compound
FGFR3(K650M) = FGFR3(K650M) (Homo sapiens (Human), UniProt P22607, K650M); conditions: read-out: % Inhibition at 10 μM of the test compound
Sequence of FGFR3(K650M) (P22607 23-806 K650M): as the sequence (P22607 23-806, species assumed) above, with K628M counted along it

JNK1 = JNK1 (Homo sapiens (Human), UniProt P45983); conditions: read-out: % Inhibition at 10 μM of the test compound
CK1δ = CK1δ (Homo sapiens (Human), UniProt P48730); conditions: read-out: % Inhibition at 10 μM of the test compound
Sequence of CK1δ (P48730 whole entry): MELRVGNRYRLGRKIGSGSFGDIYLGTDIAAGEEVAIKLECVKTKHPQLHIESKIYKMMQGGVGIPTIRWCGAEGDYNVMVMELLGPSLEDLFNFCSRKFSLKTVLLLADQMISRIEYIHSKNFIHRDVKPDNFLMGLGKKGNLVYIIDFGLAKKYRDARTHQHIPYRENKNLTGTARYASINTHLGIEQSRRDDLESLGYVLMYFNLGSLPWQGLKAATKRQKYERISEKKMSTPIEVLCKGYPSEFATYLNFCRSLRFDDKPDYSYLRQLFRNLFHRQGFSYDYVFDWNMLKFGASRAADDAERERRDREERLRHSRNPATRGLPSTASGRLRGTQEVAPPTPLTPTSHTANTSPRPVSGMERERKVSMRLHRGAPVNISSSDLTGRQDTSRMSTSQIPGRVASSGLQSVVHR

CK1γ2 = CK1γ2 (Homo sapiens (Human), UniProt P78368); conditions: read-out: % Inhibition at 10 μM of the test compound
Sequence of CK1γ2 (P78368 whole entry): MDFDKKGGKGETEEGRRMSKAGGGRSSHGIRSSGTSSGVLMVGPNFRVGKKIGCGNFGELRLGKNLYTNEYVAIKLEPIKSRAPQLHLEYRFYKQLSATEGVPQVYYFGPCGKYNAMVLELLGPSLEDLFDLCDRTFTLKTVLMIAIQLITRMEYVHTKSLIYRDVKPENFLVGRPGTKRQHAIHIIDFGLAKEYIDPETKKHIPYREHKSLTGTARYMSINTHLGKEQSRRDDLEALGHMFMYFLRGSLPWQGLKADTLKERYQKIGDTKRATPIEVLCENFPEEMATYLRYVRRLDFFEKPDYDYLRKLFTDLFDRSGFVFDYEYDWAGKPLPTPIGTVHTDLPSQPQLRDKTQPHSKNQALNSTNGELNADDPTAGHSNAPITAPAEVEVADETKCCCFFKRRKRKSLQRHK

PASK = PASK (Homo sapiens (Human), UniProt Q96RG2); conditions: read-out: % Inhibition at 10 μM of the test compound
PIM3 = PIM3 (Homo sapiens (Human), UniProt Q86V86); conditions: read-out: % Inhibition at 10 μM of the test compound
DDR2 = DDR2 (Homo sapiens (Human), UniProt Q16832); conditions: read-out: % Inhibition at 10 μM of the test compound
FGR = FGR (Homo sapiens (Human), UniProt P09769); conditions: read-out: % Inhibition at 10 μM of the test compound
MAP3K3_Cascade = MAP3K3_Cascade (Homo sapiens (Human), UniProt Q99759); conditions: read-out: % Inhibition at 10 μM of the test compound
HCK = HCK (Homo sapiens (Human), UniProt P08631); conditions: read-out: % Inhibition at 10 μM of the test compound
NEK4 = NEK4 (Homo sapiens (Human), UniProt P51957); conditions: read-out: % Inhibition at 10 μM of the test compound
SIK = SIK (Homo sapiens (Human), UniProt P57059); conditions: read-out: % Inhibition at 10 μM of the test compound

Sequence of CaMK4 (Q16566 whole entry): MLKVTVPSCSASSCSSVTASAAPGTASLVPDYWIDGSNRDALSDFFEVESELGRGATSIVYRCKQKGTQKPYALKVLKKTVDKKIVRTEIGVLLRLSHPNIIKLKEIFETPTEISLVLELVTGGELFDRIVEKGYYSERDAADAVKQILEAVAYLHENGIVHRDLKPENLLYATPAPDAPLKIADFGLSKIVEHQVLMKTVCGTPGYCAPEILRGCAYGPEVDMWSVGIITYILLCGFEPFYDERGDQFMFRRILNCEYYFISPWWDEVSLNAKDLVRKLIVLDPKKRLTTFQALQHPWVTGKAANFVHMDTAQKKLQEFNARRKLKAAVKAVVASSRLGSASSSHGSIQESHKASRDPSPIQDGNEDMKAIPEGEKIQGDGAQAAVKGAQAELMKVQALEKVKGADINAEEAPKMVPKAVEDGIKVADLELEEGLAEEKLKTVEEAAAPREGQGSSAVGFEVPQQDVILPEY

Compound `CCC1(c2ccccc2)C2=C(CC(C)(C)CC2=O)Nc2ncsc21` (centres unmarked) [Compound 1, 9-Ethyl-6,6-dimethyl-9-phenyl-5,6,7,9-tetrahydrothiazolo[4,5-b]quinolin-8(4H)-one] has an inhibition at 10 µM (EPHA6) of 21.3%, an inhibition at 10 µM (MLK3_Cascade) of 7.3% and an inhibition at 10 µM (CaMK4) of -5.4%. For the same compound, the inhibition at 10 µM (MST1) was -6.6%, the inhibition at 10 µM (QIK) was 6.9% and the inhibition at 10 µM (LYNb) was 0.8%. The inhibition at 10 µM (MAP2K5_Cascade) was 4.3%, the inhibition at 10 µM (p70S6Kβ) was 0.5% and the inhibition at 10 µM (FLT1) was 6.2%. The inhibition at 10 µM (p38β) was 3.8%, the inhibition at 10 µM (PDGFRα(V561D)) was 2.8% and the inhibition at 10 µM (IRAK4) was -1.2%. The “% Inhibition at 10 μM of the test compound” value (MAP2K1_Cascade) was −3.2%, the inhibition at 10 µM (TYK2) was -18.9% and the inhibition at 10 µM (LCK) was 1.7%. The inhibition at 10 µM (EEF2K) was 1.6%, the inhibition at 10 µM (IKKε) was 4.2% and the inhibition at 10 µM (AurC) was 8.5%. The inhibition at 10 µM (ROCK1) was 7%, the “% Inhibition at 10 μM of the test compound” value (RAF1_Cascade) was −6.7% and the inhibition at 10 µM (BRSK2) was -2.9%. For the same compound, the inhibition at 10 µM (JAK3) was 6.9%, the inhibition at 10 µM (p70S6K) was 2.9% and the inhibition at 10 µM (MAP2K4_Cascade) was 3.7%. For the same compound, the inhibition at 10 µM (CDK4/CycD3) was 18.1%, the inhibition at 10 µM (RSK2) was 1.4% and the inhibition at 10 µM (FGFR3) was 1.6%. For the same compound, the inhibition at 10 µM (AurA/TPX2) was -2.7%, the inhibition at 10 µM (BRAF_Cascade) was 6.2% and the inhibition at 10 µM (FGFR3(K650M)) was -4%. For the same compound, the inhibition at 10 µM (JNK1) was -7.3%, the inhibition at 10 µM (CK1δ) was 8.2% and the inhibition at 10 µM (CK1γ2) was 3.1%. It also gave an inhibition at 10 µM (PASK) of -5.2%, an inhibition at 10 µM (PIM3) of 1.1% and an inhibition at 10 µM (DDR2) of 0.6%. For the same compound, the inhibition at 10 µM (FGR) was 10.6%, the inhibition at 10 µM (MAP3K3_Cascade) was 11.1% and the inhibition at 10 µM (HCK) was -3%. The inhibition at 10 µM (NEK4) was -2.5% and the inhibition at 10 µM (SIK) was 5.6%.

— patent US11203601B2, “Tricyclic compounds as glycogen synthase kinase 3 (GSK3) inhibitors and uses thereof” (The Broad Institute, Inc., priority 2017, dated 2021)
